Experimental data reported in US5208223A, “Phosphocholine derivative inhibitors of phospholipase A2” (American Cyanamid Company, priority 1992, dated 1993).
Structures can show the parent of a compound that is named as a salt. Where two headings read alike, the source gives them in different places.

Key:
Assay type in all cases: biochemical
porcine pancreatic PLA2 [1] = target: T1, porcine pancreatic PLA2 (Sus scrofa, UniProt P00592); assay: MHPLA2 assay: in vitro porcine pancreatic phospholipase A2, mixed micelle design, [s]=10 μm; conditions: dose 25 μ/ml, subs. con. 10, read-out: % Inh.
T1 construct: purchased Sigma
Method in brief: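 Compounds dried with 10 μM 1-stearyl-2-[3H]-arachidonyl-PC substrate in mixed micelles (0.1M tris-HCl pH 9.0, 10 mM CaCl2, 10 mM Na taurocholate). Reaction started by adding enzyme and run 15 min at 37°C, then stopped with TCA. Released [3H]-arachidonate separated by TLC or column and counted by scintillation.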

porcine pancreatic PLA2 [2] = target: T1, porcine pancreatic PLA2; assay: PLA2 assay: in vitro porcine pancreatic phospholipase A2, preincubation of drug+enzyme, substrate 2 nM; conditions: preincubation, subs. con. 2; for inhibition at 10 µg/mL: dose 10 μ/ml; for inhibition at 20 µg/mL: dose 20 μ/ml; for IC50: read-out: IC50 (converted)
Method in brief: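 Porcine pancreatic PLA2 acting on 2 nM radiolabeled arachidonyl-phosphatidylcholine in mixed micelles (0.1 M Tris-HCl pH 9.0, 10 mM CaCl2, 10 mM Na taurocholate), 15 min at 37 °C with preincubation of drug and enzyme. Stopped with TCA; released 3H-arachidonate extracted, separated by TLC or column, counted by scintillation.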

porcine pancreatic PLA2 [3] = target: T1, porcine pancreatic PLA2; assay: MPLA2 assay: in vitro porcine pancreatic phospholipase A2, mixed micelle design, substrate 2 nM; conditions: dose 25 μ/ml
Protocol: Phospholipase A2 activity was measured by a radiochemical assay in which labeled synthetic phosphatidylcholine substrate is converted by porcine pancreatic PLA2 to free radiolabeled arachidonate and lyso PC. Radiolabeled arachidonate is extracted from the reaction mixture and separated from unreacted substrate by column chromatography or TLC. Radioactivity (cpm) in samples is quantitated by liquid scintillation counting. Specific details are as follows:
Labeled substrate(1-stearyl-2-^3 H-arachidonylphosphatidylcholine; Amersham, sp. act. 84 (uCi/mmole, 0.025 to 0.2 uCi/assay tube and unlabeled substrates (Avanti), in sufficient quantity to give 20,000 cpm to 50,000 cpm and 10 μM to 1,000 μM final concentration/assay tube are dried under a stream of nitrogen. The PLA2 and mPLA2 assays utilized a […] substrate concentration. The mHPLA2 and HPLA2 assays (vida infra) utilized a 10 μM substrate concentration and the SmPLA2 assay utilized a substrate concentration ranging from 100 to 1000 μm. The substrate is then redissolved in 0.1M tris-HCl buffer, pH 9.0 containing 10 mM CaCl2 and 10 mM Na taurocholate detergent. The mixture is sonicated in a Kontes Sonifier to yield a homogeneous dispersion. The "mixed" micellar substrate is clear. An aliquot is reserved for a cpm count (total substrate). The total reaction volume is 500 μL; siliconized glassware or plasticware is used throughout. Enzyme (Sigma, sp. act.>690 U/mg protein and preferably 900 U/mg protein) is diluted 1:750 or 1:1000 in 0.1M tris-HCl buffer, pH 9.0 (without Ca^++ and detergent). Enzyme dilution depends on substrate concentration and required enzyme concentration.
The substrate in buffer is kept on ice until the reaction is started. The reaction is started by adding 10 μL of diluted enzyme solution to 490 μL of micellar substrate solution. Samples are incubated in a 37° C. water bath for 15 minutes with gentle mixing. The reaction is terminated by the addition of 100 μL of 1M fresh trichloroacetic acid (TCA) solution and chilling the tubes on ice for 30 minutes.
Samples (600 μL) are extracted with 3 ml CHCl3 /MeOH (2:1) for thin layer chromatography or in hexane/ether (9:1) for column chromatography. The phases are separated by gentle centrifugation at 700 rpm×5'. The organic phase is recovered.
Labeled arachidonate extracted with CHCl3 /MeOH is separated on silica gel G TLC plates (Analtech). Twenty μL of a 2 mg/ml internal standard solution of arachidonic acid (Sigma) is combined with 2-3 ml of the organic phase. The entire mixture is dried under nitrogen and redissolved in 50 μL of CHCl3 /MeOH (2:1). A 20 μL sample is counted in 10 ml of Beckman Redi-solv HP and spotted on silica gel G plates. The solvent system used to develop the plate is CHCl3 /MeOH/13.5N NH3 /H2 O (70:30:4:1). Plates are developed in a glass chamber for 1-11/2 hours, air dried, and the spots visualized in an iodine vapor chamber. Standards of phosphatidylcholine, lyso PC, and arachidonic acid (Sigma) are made as 2 mg/ml stocks in CHCl3 /MeOH (2:1) and spotted on plates. Spots corresponding to arachidonate and phospholipid are scraped and counted in 10 ml Beckman Redi-Solv HP scintillation fluid.
Samples are extracted with hexane/ether and the upper organic phase recovered. An aliquot is applied to a Silicar CC4 (Malincrodt) column. Columns are prepared using 1 ml of a 1:1 slurry of silicar CC4 in hexane/ether in a Pasteur pipet (approx. 2 cm height). Columns are rinsed with 500 μL of hexane/ether before adding the sample (300-600 μL) to the column. Columns are eluted with a total of 6 ml of hexane/ether. The 6 ml sample is counted in 10 ml of Beckman Redi-Solv HP scintillation fluid.
or the phospholipase A2 assay, compounds are prepared as 1 mg/ml stock solutions in MeOH and diluted appropriately in PBS. […]

[4] = subs. con. 2, read-out: % Inh. Avg.

T1 sequence (P00592 23-146): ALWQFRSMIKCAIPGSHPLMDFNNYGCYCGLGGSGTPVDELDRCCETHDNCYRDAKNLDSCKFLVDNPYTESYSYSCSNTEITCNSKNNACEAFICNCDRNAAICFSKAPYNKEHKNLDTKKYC

`CCCCCCCCCCCCCCCCOCC(COP(=O)([O-])OCC[N+](C)(C)C)CS(=O)(=O)CCCCCCCCCCCCCCCC` (stereo not shown) [7-[(Hexadecylsulfonyl)methyl]-4-hydroxy-N,N,N-trimethyl-3,5,9-trioxa-4-phosphapentacosan-1-aminium, hydroxide, inner salt, 4-oxide] was tested, and the inhibition at 25 µg/mL (porcine pancreatic PLA2 [1]) was 19%, the inhibition at 10 µg/mL (porcine pancreatic PLA2 [2]; read-out: % Inh.) was 9% and the inhibition at 10 µg/mL (porcine pancreatic PLA2 [2]; read-out: % Inh. Avg.) was 57%. For the same compound, the inhibition at 20 µg/mL (porcine pancreatic PLA2 [2]; read-out: % Inh.) was 82%, the IC50 (porcine pancreatic PLA2 [2]) was 2.99 µM and the inhibition at 25 µg/mL (porcine pancreatic PLA2 [3]; subs. con. 2, read-out: % Inh.) was 80%. The inhibition at 25 µg/mL (porcine pancreatic PLA2 [3]; [4]) was 72%.

`CCCCCOCC(COP(=O)([O-])OCC[N+](C)(C)C)OP(=O)(O)OCCCCC` (single isomer, unassigned; less polar) [3,5,8,10-Tetraoxa-4,9-diphosphapentadecan-1-aminium, 4,9-dihydroxy-N,N,N-trimethyl-7-[(pentyloxy)methyl]-, hydroxide, 4-(inner salt), 4,9-dioxide, less polar isomer] showed an inhibition at 25 µg/mL (porcine pancreatic PLA2 [1]) of 12%, an inhibition at 10 µg/mL (porcine pancreatic PLA2 [2]; read-out: % Inh.) of 20% and an inhibition at 20 µg/mL (porcine pancreatic PLA2 [2]; read-out: % Inh.) of 17%. For the same compound, the “% Inh.” value (porcine pancreatic PLA2 [3]; subs. con. 2) was “STIM”.

`CCCCCCCCCCCCCCCC[S+]([O-])CCCOP(=O)([O-])OCC[N+](C)(C)C` (stereo not shown) [4-Hydroxy-N,N,N-trimethyl-3,5-dioxa-9-thia-4-phosphapentacosan-1-aminium, hydroxide, inner salt, 4.9-dioxide] was tested, and the inhibition at 25 µg/mL (porcine pancreatic PLA2 [1]) was 16%, the inhibition at 10 µg/mL (porcine pancreatic PLA2 [2]; read-out: % Inh.) was 59% and the inhibition at 10 µg/mL (porcine pancreatic PLA2 [2]; read-out: % Inh. Avg.) was 61%. The inhibition at 20 µg/mL (porcine pancreatic PLA2 [2]; read-out: % Inh.) was 82%, the IC50 (porcine pancreatic PLA2 [2]) was 12.5 µM and the inhibition at 25 µg/mL (porcine pancreatic PLA2 [3]; subs. con. 2, read-out: % Inh.) was 68%. For the same compound, the inhibition at 25 µg/mL (porcine pancreatic PLA2 [3]; [4]) was 71%.

In the case of `CCCCCCCCCCCCCCCCOCC(COP(=O)([O-])OCC[N+](C)(C)C)CC(O)C(F)(F)CCCCCCCCCCCCCCCC` (stereo not shown) [3,5.9-Trioxa-4-phosphapentacosan-1-aminium, 7-(3,3-difluoro-2-hydroxynonadecyl)-4-hydroxy-N,N,N-trimethyl-, hydroxide, inner salt, 4-oxide], the inhibition at 25 µg/mL (porcine pancreatic PLA2 [1]) is reported as 11%, the inhibition at 10 µg/mL (porcine pancreatic PLA2 [2]; read-out: % Inh.) is reported as 45% and the inhibition at 20 µg/mL (porcine pancreatic PLA2 [2]; read-out: % Inh.) is reported as 49%. It also gave an inhibition at 25 µg/mL (porcine pancreatic PLA2 [3]; subs. con. 2, read-out: % Inh.) of 82%.
